In patent US20030154507A1, “Synthetic herbicide resistance gene” (priority 2001, published 2003):

How the values were obtained:
[1] = tested on: transgenic 2,4-D resistant cotton containing the naturally-occurring tfdA gene construct; assay: Spray of 2,4-D res control seedlings, visual damage evaluation; type: in vivo; settings: 55 plants, 1/2 lb/acre acid equivalents at 24 days, evaluated after 10-14 days
From the text: (§1) To verify that the inserted synthetic SAD genes were inheritable and to gain an indication of the number of gene insertions, seeds from the seven fertile SAD transgenic cotton plants were planted into hydroponic rock wool slabs (Hummert, St. Louis, Mo.) that had been saturated with Peters Professional water-soluble fertilizer (5-11-26 HYDRO-SOL, supplemented with calcium nitrate and magnesium sulfate to provide a complete nutrient compliment; Hummert, St. Louis, Mo.). The hydroponic rock wool slabs were placed on benches in a greenhouse, and nutrients were maintained at optimal levels using a non-recycling hydroponic watering system. Plants were grown under greenhouse conditions (28° C.±5° C. air temperature) for 24 days. At this point, the plants were removed to a spray hood, sprayed with 2,4-D amine at the normal field rate of 1/2 lb/acre acid equivalents, maintained in the hood for 24 hours to allow the 2,4-D to volatilize, and then placed back in the greenhouse.
(§2) The negative control of Coker 312 that had been regenerated from tissue culture did show some signs of resistance, so these ratios are not to be considered as definitive measures of Mendelian inheritance of the SAD gene.

[2] = tested on: negative controls (cotton); assay: Respray event, negative controls; type: in vivo; settings: all negative controls; 1/2 lb/acre acid equivalents
Procedure: (§3) Each plant tested positive for the SAD construct by PCR. These plants were grown for a further 14 days and then resprayed with 2,4-D amine at the normal field rate of 1/2 lb/acre acid equivalents. […] The 35 plants were grown to maturity, and seeds were collected.

[3] = tested on: SAD transgenic cotton plants; assay: Spray of seedlings from fertile SAD transgenic cotton lines, visual damage evaluation; type: in vivo; settings: 1/2 lb/acre acid equivalents at 24 days, evaluated after 10-14 days
From the text: as §1, §2

[4] = tested on: Coker 312 (not transgenic) regenerated from somatic embryos; assay: Spray of 2,4-D sens control seedlings, visual damage evaluation; type: in vivo, cotton; settings: 45 plants, 1/2 lb/acre acid equivalents at 24 days, evaluated after 10-14 days
From the text: as §1, §2

[5] = tested on: SAD transgenic cotton plants; assay: Respray of undamaged SAD plants with 2,4-D amine; type: in vivo; settings: all 35 plants (5 from each of 7 SAD lines); resprayed at 1/2 lb/acre acid equivalents 14 days after first evaluation
Procedure: as §3

[6] = tested on: transgenic cotton plants containing the SAD2 gene (Coker 312); assay: Greenhouse spray of PCR-positive SAD2 transformed cotton plants with 2,4-D amine; type: in vivo; settings: of 95 plants; 1 lb/acre acid equivalents (twice normal field rate); sprayed at squaring stage or later
From the text: The two binary vectors containing the SAD2 gene, pPZP211-PNPT-311-SAD2 and pPZP211-PNPT-512-SAD2, were individually introduced into the EHA 105 strain of Agrobacterium tumefaciens (Hood et al., Transgenic Research, 2:208-218 (1993)) by direct transformation as described by Walker-Peach and Velten, in Plant Molecular Biology Manual, section B1:1-19 (Gelvin, Shilperoort and Verma, eds., Kluwer Academic Publishers, Dordrecht, The Netherlands, 1994)). The constructs were subsequently introduced by Agrobacterium transfection into cotyledon explants from the cotton variety Coker 312 (Coker Seed Inc.). This was achieved by isolating sterile cotyledon tissue (derived from seedlings grown in culture from surface-sterilized seed as described by Trolinder and Gooden, Plant Cell Reports, 6:231-234 (1987)), generating explants (by use of a sterile hole punch), and submerging the explants in a 48-hour-old culture of EHA 105, containing the appropriate construct, grown at 28° C. […]
A total of 111 kanamycin-resistant cotton seedlings were generated (44 were generated in the pPZP211-PNPT-311-SAD2 transformations, and 67 in the pPZP211-PNPT-512-SAD2 transformations). Each plant was analyzed for the presence of the SAD synthetic coding sequence and the NPTII coding sequence by PCR to ensure the integrity of the inserted DNA. […]

[7] = tested on: plants; settings: in vivo; cited from earlier work

CNC.O=C(O)COc1ccc(Cl)cc1Cl [2,4-D amine]
No Damage (number of plants) [1]: 7
Severe damage (number of plants) [1]: 15
Some symptoms (number of plants) [1]: 33
survival following respray [2]: did not survive
No Damage (number of plants) ([3]; line 311-22-1-4, 43 plants): 16
Severe damage (number of plants) ([3]; line 311-22-1-4, 43 plants): 11
Some symptoms (number of plants) ([3]; line 311-22-1-4, 43 plants): 16
No Damage (number of plants) ([3]; line 311-22-1-5, 47 plants): 6
Severe damage (number of plants) ([3]; line 311-22-1-5, 47 plants): 23
Some symptoms (number of plants) ([3]; line 311-22-1-5, 47 plants): 18
No Damage (number of plants) ([3]; line 311-22-1-8, 56 plants): 14
Severe damage (number of plants) ([3]; line 311-22-1-8, 56 plants): 14
Some symptoms (number of plants) ([3]; line 311-22-1-8, 56 plants): 28
No Damage (number of plants) ([3]; line 512-21-1-5, 56 plants): 8
Severe damage (number of plants) ([3]; line 512-21-1-5, 56 plants): 14
Some symptoms (number of plants) ([3]; line 512-21-1-5, 56 plants): 34
No Damage (number of plants) ([3]; line 512-21-4-3, 30 plants): 7
Severe damage (number of plants) ([3]; line 512-21-4-3, 30 plants): 3
Some symptoms (number of plants) ([3]; line 512-21-4-3, 30 plants): 20
No Damage (number of plants) ([3]; line 512-21-4-5, 41 plants): 5
Severe damage (number of plants) ([3]; line 512-21-4-5, 41 plants): 12
Some symptoms (number of plants) ([3]; line 512-21-4-5, 41 plants): 24
No Damage (number of plants) ([3]; line 512-24-4-4, 63 plants): 7
Severe damage (number of plants) ([3]; line 512-24-4-4, 63 plants): 35
Some symptoms (number of plants) ([3]; line 512-24-4-4, 63 plants): 21
No Damage (number of plants) [4]: 0
Severe damage (number of plants) [4]: 25
Some symptoms (number of plants) [4]: 20
damage following respray [5]: no damage
plants that survived treatment with little or no herbicide damage [6]: 22

Oc1ccc(Cl)cc1Cl [DCP, 2,4-dichlorophenol]
toxicity to plants relative to 2,4-D [7]: much less toxic to plants than 2,4-D
